Assay results as given in PubChem BioAssay AID1259407 (Chemical Carcinogenesis Research Information System (CCRIS), 2018).
The source made the active and inactive calls. The rule behind the calls is not given here.

Test system: CCRIS mutagenicity, Ames/micronucleus/aberration tests
Experiment: CCRIS mutagenicity studies
[1] = Test System: AMES SALMONELLA TYPHIMURIUM, Strain/Indicator: TA100, Metabolic Activation: NONE, Method: STANDARD PLATE
[2] = Test System: AMES SALMONELLA TYPHIMURIUM, Strain/Indicator: TA98, Metabolic Activation: NONE, Method: STANDARD PLATE

How did the mutagenic call (Test System: AMES SALMONELLA TYPHIMURIUM, Strain/Indicator: TA92, Metabolic Activation: NONE, Method: SPOT TEST) turn out when `CC(C)(O)[C@H]1Cc2cc3ccc(=O)oc3cc2O1` was run?
Its mutagenic call is “active; positive”.

What about the mutagenic call (Test System: AMES SALMONELLA TYPHIMURIUM, Strain/Indicator: TA92, Metabolic Activation: RAT, LIVER, S-9, AROCLOR 1254, Method: SPOT TEST) of the same molecule?
Its mutagenic call is “active; positive”.

And the mutagenic call (Test System: AMES SALMONELLA TYPHIMURIUM, Strain/Indicator: TA94, Metabolic Activation: NONE, Method: SPOT TEST)?
Its mutagenic call is “inactive; negative”.

And the mutagenic call (Test System: AMES SALMONELLA TYPHIMURIUM, Strain/Indicator: TA94, Metabolic Activation: RAT, LIVER, S-9, AROCLOR 1254, Method: SPOT TEST)?
Its mutagenic call is “inactive; negative”.

And the mutagenic call (Test System: AMES SALMONELLA TYPHIMURIUM, Strain/Indicator: TA97, Metabolic Activation: NONE, Method: SPOT TEST)?
The mutagenic call was “active; positive”.

What about the mutagenic call (Test System: AMES SALMONELLA TYPHIMURIUM, Strain/Indicator: TA97, Metabolic Activation: RAT, LIVER, S-9, AROCLOR 1254, Method: SPOT TEST) of the same molecule?
The mutagenic call was “active; positive”.

What about the mutagenic call (Test System: AMES SALMONELLA TYPHIMURIUM, Strain/Indicator: TA98, Metabolic Activation: NONE, Method: SPOT TEST) of the same molecule?
Its mutagenic call is “active; positive”.

And the mutagenic call (Test System: AMES SALMONELLA TYPHIMURIUM, Strain/Indicator: TA98, Metabolic Activation: RAT, LIVER, S-9, AROCLOR 1254, Method: SPOT TEST)?
Its mutagenic call is “active; positive”.

What about the mutagenic call (Test System: AMES SALMONELLA TYPHIMURIUM, Strain/Indicator: TA100, Metabolic Activation: NONE, Method: SPOT TEST) of the same molecule?
The mutagenic call was “active; positive”.

What about the mutagenic call [1] of the same molecule?
Its mutagenic call is “active; positive”.

What about the mutagenic call (Test System: AMES SALMONELLA TYPHIMURIUM, Strain/Indicator: TA100, Metabolic Activation: RAT, LIVER, S-9, AROCLOR 1254, Method: SPOT TEST) of the same molecule?
Its mutagenic call is “active; positive”.

And the mutagenic call (Test System: AMES SALMONELLA TYPHIMURIUM, Strain/Indicator: TA102, Metabolic Activation: NONE, Method: SPOT TEST)?
Its mutagenic call is “inactive; negative”.

What about the mutagenic call (Test System: AMES SALMONELLA TYPHIMURIUM, Strain/Indicator: TA102, Metabolic Activation: RAT, LIVER, S-9, AROCLOR 1254, Method: SPOT TEST) of the same molecule?
Its mutagenic call is “inactive; negative”.

Which results are given for `O=C(O)c1ccco1`?
mutagenic call [2]: inactive; negative; mutagenic call [1]: inactive; negative

How did the mutagenic call (Test System: AMES SALMONELLA TYPHIMURIUM, Strain/Indicator: TA100, Metabolic Activation: NONE, Method: SUSPENSION) turn out when `CNP(=O)(N(C)C)N(C)C` was run?
Its mutagenic call is “inactive; negative”.

And the mutagenic call (Test System: AMES SALMONELLA TYPHIMURIUM, Strain/Indicator: TA100, Metabolic Activation: RAT, LIVER, S-9, AROCLOR 1254, Method: SUSPENSION)?
Its mutagenic call is “active; positive”.

For `O=[N+]([O-])c1ccc2ccc3cc4c(c5ccc1c2c35)CCCC4`, which mutagenic call [2] is on record?
The mutagenic call was “active; positive”.

And the mutagenic call [1]?
Its mutagenic call is “inactive; negative”.

With `O=[N+]([O-])c1ccc2ccc3cc4c(c5ccc1c2c35)C=C[C@H](O)[C@H]4O` as the molecule, how does the mutagenic call (Test System: AMES SALMONELLA TYPHIMURIUM, Strain/Indicator: TA98(1,8-DNP6), Metabolic Activation: NONE) read?
The mutagenic call was “active; positive”.

What about the mutagenic call (Test System: AMES SALMONELLA TYPHIMURIUM, Strain/Indicator: TA98(1,8-DNP6), Metabolic Activation: RAT, LIVER, S-9, AROCLOR 1254) of the same molecule?
Its mutagenic call is “active; positive”.

And the mutagenic call (Test System: AMES SALMONELLA TYPHIMURIUM, Strain/Indicator: TA98(NR), Metabolic Activation: NONE)?
The mutagenic call was “active; positive”.

What about the mutagenic call (Test System: AMES SALMONELLA TYPHIMURIUM, Strain/Indicator: TA98(NR), Metabolic Activation: RAT, LIVER, S-9, AROCLOR 1254) of the same molecule?
Its mutagenic call is “active; positive”.

And the mutagenic call (Test System: AMES SALMONELLA TYPHIMURIUM, Strain/Indicator: TA98, Metabolic Activation: NONE)?
Its mutagenic call is “active; positive”.

And the mutagenic call (Test System: AMES SALMONELLA TYPHIMURIUM, Strain/Indicator: TA98, Metabolic Activation: RAT, LIVER, S-9, AROCLOR 1254)?
Its mutagenic call is “active; positive”.

And the mutagenic call (Test System: CHINESE HAMSTER OVARY, Strain/Indicator: CHO-K1-BH4 (HGPRT), Metabolic Activation: NONE)?
Its mutagenic call is “active; positive”.

And the mutagenic call (Test System: CHINESE HAMSTER OVARY, Strain/Indicator: CHO-K1-BH4 (HGPRT), Metabolic Activation: RAT, LIVER, S-9, 3-METHYLCHOLANTHRENE)?
The mutagenic call was “active; positive”.
